The results in this text go back to the OligoGym collection.

Bases are written 5' to 3'; sugars and linkages follow in the same order, as letters with counts (s phosphorothioate, o phosphodiester; PS: all linkages phosphorothioate). The collection does not say whether C is 5-methylated. l = locked nucleic acid (LNA); d = 2'-deoxy (DNA)

This data set concerns the target Tau. Nature of the data set: rat primary cortical neurons, FLIPR, 25 uM ASO.
Turning to “CTTAGTCATCTTCCCTCA (sugars l2 d14 l2, PS)”, the calcium oscillation score was 93.8 % of control. For TTTGGCGTTCTCGC (sugars l3 d8 l3, PS), the calcium oscillation score is 28.7 % of control. On to “TTTCCTGCAAATTCTCA (sugars l4 d10 l3, PS)”, for which the calcium oscillation score was 66.8 % of control.

For the sequence AGGCATGATTGTGGGC (sugars l3 d10 l3, PS), the calcium oscillation score is 0 % of control.

Consider “ACCTCCTGGTTTATGATGGA (sugars l3 d14 l3, PS)”, for which the calcium oscillation score was 0 % of control. For the sequence “GGCCTGATCACAAACCCTGC (sugars l3 d14 l3, PS)”, the calcium oscillation score is 9.07 % of control. Consider “TCCAAACTTTTACTCTG (sugars l3 d10 l4, PS)”, for which the calcium oscillation score is 31.2 % of control. “AGCTTGTGGGTTTCAATCTT (sugars l3 d14 l3, PS)”: the calcium oscillation score is 0 % of control.

Regarding TAGCAGAGGAACGTGT (sugars l3 d10 l3, PS), the calcium oscillation score is 40.7 % of control. For the sequence “TTAATTATTAAATCTTCTCT (sugars l4 d12 l4, PS)”, the calcium oscillation score is 60.1 % of control. For TAGTAAACACCATCTC (sugars l4 d9 l3, PS) the value was 77.2 % of control; for “AATACAAACAGCCTCCC (sugars l2 d12 l3, PS)”, 61.6 % of control. Take TCCCTTAATTTCAC (sugars l3 d8 l3, PS): the calcium oscillation score is 133 % of control. As to “CCCTTGATCATATTTGTGGC (sugars l3 d14 l3, PS)”, the calcium oscillation score is 35.7 % of control.

For “TGAACAGGAGAGCCATTTCC (sugars l3 d14 l3, PS)”, the calcium oscillation score was 7.14 % of control. With “CTCCTGGTTTATGATGGATG (sugars l3 d14 l3, PS)”, the calcium oscillation score was 35 % of control. For “CAATTCTCAGCACACCA (sugars l4 d11 l2, PS)”, the calcium oscillation score was 22.5 % of control. The result for “CATTAACCCTTGATCATATT (sugars l3 d14 l3, PS)” reads 36.3 % of control. In the case of GGTCTGGCATGGGC (sugars l3 d8 l3, PS), the calcium oscillation score was 0 % of control. For “TCCCGTCTTTGCTTTTACTG (sugars l3 d14 l3, PS)” the value was 3.7 % of control; for “TTAGACTCCTTCTTTAGGCT (sugars l3 d14 l3, PS)”, 26.2 % of control.

“TTGAAGTCAAGCTTCTCAGA (sugars l3 d14 l3, PS)”: the calcium oscillation score was 0 % of control. Consider “TATTTCCAAATTCACTTTTA (sugars llldlddddddddddldlll, PS)”, for which the calcium oscillation score is 129 % of control.

In the case of “AGGCAAAGGTTTATCTTCCA (sugars l3 d14 l3, PS)”, the calcium oscillation score was 33 % of control. As to AGAGGCACAAGTCCT (sugars l3 d9 l3, PS), the calcium oscillation score is 74.3 % of control. On to “AAAGATGAAATTTGCTCTTA (sugars l3 d14 l3, PS)”, for which the calcium oscillation score is 145 % of control.

As to “TTAACTCAAATCAATTCTCA (sugars l4 d12 l4, PS)”, the calcium oscillation score is 62 % of control. For “CCAGTGCCTGGCACAACAGG (sugars l3 d14 l3, PS)” the value was 4.03 % of control; for “ACAAACCAACTCAACATTAC (sugars l4 d12 l4, PS)”, 84.6 % of control; for “CTCTTCAAATCATTCAAT (sugars l4 d10 l4, PS)”, 69.7 % of control. As for CTAAGGCAAGGCCTAT (sugars l3 d10 l3, PS), the calcium oscillation score is 83 % of control. On to TATTGTCCAGGGACCC (sugars l3 d10 l3, PS), for which the calcium oscillation score was 29.9 % of control. For “CTTTATTTCCAAATTCACTT (sugars l2 d1 l2 d11 l4, PS)” the value was 0 % of control. On to “CCACCTCCTGGTTTATGATG (sugars l3 d14 l3, PS)”, for which the calcium oscillation score is 19.4 % of control.

Take “CACTTTACACATTAAATTTA (sugars l4 d12 l4, PS)”: the calcium oscillation score was 60.9 % of control. In the case of “CCAGCGTGATCTTCCATCAC (sugars l3 d14 l3, PS)”, the calcium oscillation score is 112 % of control. For the sequence “CTTTATTTCCAAATTCACTT (sugars l2 d16 l2, PS)”, the calcium oscillation score was 195 % of control. In the case of ACCAATTAACCGAACT (sugars l3 d10 l3, PS), the calcium oscillation score was 159 % of control. For “TTACCCATCTTAATTCATTT (sugars l4 d14 l2, PS)” the value was 96.1 % of control. As to “CTTGGGTGGAGTACGGACCA (sugars l3 d14 l3, PS)”, the calcium oscillation score was 0 % of control. Consider “GCTTTCCAATTCCCCAT (sugars l2 d12 l3, PS)”, for which the calcium oscillation score is 94.5 % of control. CTTCTGTCACTTATTTA (sugars l4 d9 l4, PS): the calcium oscillation score is 46.9 % of control. The result for CCAAGAGGCACAAGTC (sugars l3 d10 l3, PS) reads 74.3 % of control; that for “TTCTCTCTTAACTTTATTTT (sugars l4 d12 l4, PS)”, 93 % of control; that for “ATTTATTCCATTGCTCT (sugars l2 d11 l4, PS)”, 42.4 % of control. For the sequence CCTTAATTTCACCCT (sugars l3 d9 l3, PS), the calcium oscillation score was 140 % of control. For “CAGCCTACTTTATTCCCT (sugars l2 d14 l2, PS)” the value was 82.2 % of control. Take TCTTGTGATGCAGGA (sugars l3 d9 l3, PS): the calcium oscillation score is 91.8 % of control. For “CCATTCCCTCCAGAACCATC (sugars l3 d14 l3, PS)” the value was 36.3 % of control; for ATGTCGATGCTGCC (sugars l3 d8 l3, PS), 137 % of control; for “CTTTATTTCCAAATTCAC (sugars l4 d10 l1 d1 l2, PS)”, 5.59 % of control. With “GATATTCATTCCCTCAC (sugars l2 d11 l4, PS)”, the calcium oscillation score is 57.2 % of control.

Turning to AGGCACAAGTCCTTA (sugars l3 d9 l3, PS), the calcium oscillation score was 107 % of control.

Consider TACCCCATTTTTGACA (sugars l3 d11 l2, PS), for which the calcium oscillation score was 60.9 % of control.

As for ACTGATCATAATCCTA (sugars l3 d9 l4, PS), the calcium oscillation score is 81.1 % of control. Regarding TCCTGTGCTTCAGG (sugars l3 d8 l3, PS), the calcium oscillation score is 108 % of control. For the sequence CCTATGCCAATTATTT (sugars l4 d8 l4, PS), the calcium oscillation score is 68.2 % of control. Consider “AGCTTCGTCTTCCAGGCTGG (sugars l3 d14 l3, PS)”, for which the calcium oscillation score was 13.3 % of control. With “GACTTGTACACGATCTCCGC (sugars l3 d14 l3, PS)”, the calcium oscillation score was 66.8 % of control. “TCTTTATTAACACTCCAC (sugars l2 d12 l4, PS)”: the calcium oscillation score was 64.6 % of control.

Consider TTCTCGCGGAAGGTCA (sugars l3 d10 l3, PS), for which the calcium oscillation score was 0 % of control. Turning to “CTTTATTTCCAAATTCACT (sugars l3 d11 l1 d2 l2, PS)”, the calcium oscillation score was 140 % of control. “GGTTAGCCCTAAAGTCCCAG (sugars l3 d14 l3, PS)”: the calcium oscillation score is 37.3 % of control. The result for “TTTTATTTCCTCCGCCA (sugars l2 d13 l2, PS)” reads 18.5 % of control; that for “CAGATTTTACTTCCACCT (sugars l2 d14 l2, PS)”, 44.7 % of control; that for “CTTTGTAATTCCTTCTCT (sugars l2 d13 l3, PS)”, 63.3 % of control. Consider “CTTTATTTCCAAATTCAC (sugars l5 d9 l4, PS)”, for which the calcium oscillation score was 104 % of control.

CTTGTGATGCAGGAG (sugars l3 d9 l3, PS): the calcium oscillation score was 87.8 % of control.

For the sequence “TATTTCCAAATTCACTTTTA (sugars lldldldddddddddlldll, PS)”, the calcium oscillation score was 141 % of control. As to “TTATTTCCAAATTCACTTTT (sugars lldllddddddddddldlll, PS)”, the calcium oscillation score was 81 % of control. For GACTTGTACACGAT (sugars l3 d8 l3, PS), the calcium oscillation score is 112 % of control. In the case of “CACTTTCCTAATTCCCAAAT (sugars l2 d16 l2, PS)”, the calcium oscillation score was 62.1 % of control. The result for “ACAGCCATTTTCCATAT (sugars l3 d11 l3, PS)” reads 59.3 % of control; that for “CAGCTAAGACCCTCAGGTTT (sugars l3 d14 l3, PS)”, 38.5 % of control; that for “CCTTTTCTACTCTACTCTCA (sugars l2 d16 l2, PS)”, 62.1 % of control.

As for TATTAATTATCTGCAC (sugars l3 d10 l3, PS), the calcium oscillation score is 27.1 % of control.

Turning to TCCCTTAATTTCACC (sugars l3 d9 l3, PS), the calcium oscillation score was 80.5 % of control. For TCACACACATGATTATC (sugars l4 d9 l4, PS) the value was 78.5 % of control; for “CTTTATTTCCAAATTCACT (sugars l3 d11 l2 d1 l2, PS)”, 116 % of control. As for “ACTTTATTTCCAAATTCACTTTTAC (sugars llddldddddddddddddddllddl, PS)”, the calcium oscillation score is 17.7 % of control. The result for GCTTCCAGTCCCGTCT (sugars l3 d10 l3, PS) reads 104 % of control; that for TCCTGGTTTATGATGG (sugars l3 d10 l3, PS), 2.3 % of control; that for CATCACTTCGAACTCC (sugars l3 d10 l3, PS), ≥ 200 % of control.

For the sequence “TAATTATTAAATCTTCTCTT (sugars l4 d12 l4, PS)”, the calcium oscillation score is 60.1 % of control.

In the case of CGCCCCACTTTTAATT (sugars l3 d11 l2, PS), the calcium oscillation score is 58.3 % of control. In the case of “TGGGTGATATTGTCCAGGGA (sugars l3 d14 l3, PS)”, the calcium oscillation score is 0 % of control. With “CGCCTTTAGTGATTACAGGC (sugars l3 d14 l3, PS)”, the calcium oscillation score was 20.2 % of control. The result for “AATACATCAATAGAAGGCAA (sugars l3 d14 l3, PS)” reads 16.1 % of control. For the sequence CCCCTCCATTAAGAAC (sugars l3 d11 l2, PS), the calcium oscillation score was 68.1 % of control. For GAGTCTACCATGTCGA (sugars l3 d10 l3, PS) the value was 65.2 % of control; for “CATCTAAACACCTCAATCCA (sugars l2 d16 l2, PS)”, 72.6 % of control. As for “CTTTATTTCCAAATTCAC (sugars l3 d11 l1 d1 l2, PS)”, the calcium oscillation score is 132 % of control. Take “ATGAGCCACACTTGGAGGTC (sugars l3 d14 l3, PS)”: the calcium oscillation score was 19.9 % of control. Take “TGGTTTGTAGACTATTTGCA (sugars l3 d14 l3, PS)”: the calcium oscillation score was 0 % of control.
